Values of other authors as cited in patent US10213389B2 (priority 2005, dated 2019).

1,4:3,6-dianhydro-D-glucitol dinitrate [Isosorbide dinitrate]
solubility in acetone, chloroform, alcohol and ether (acetone, chloroform, alcohol, ether): freely soluble
solubility in water (water, described as sparingly soluble): 1.0 g/900 ml
